Assay results taken from patent publication US7772274B1, “Docetaxel formulations with lipoic acid” (Scidose, LLC, priority 2009, dated 2010).
Like-named read-outs stand apart in the source and are kept apart here.

Experiment: Solubility of docetaxel in various solvents
Assay type: physicochemical
Conditions: for solubility: read-out: Solubility of Docetaxel, Concentration
Procedure: In consideration of the severe side effects associated with the use of polysorbates, such as TWEEN 80®, as solubilizers of docetaxel, solubility studies were conducted to determine non-toxic solvents that can effectively dissolve docetaxel.
Solubility of docetaxel was assessed using several different solvents that are well-tolerated in subjects, as well as polysorbates for comparison.

Compound `CC(=O)O[C@@]12CO[C@@H]1C[C@H](O)[C@@]1(C)C(=O)[C@H](O)C3=C(C)[C@@H](OC(=O)[C@H](O)[C@@H](NC(=O)OC(C)(C)C)c4ccccc4)C[C@@](O)([C@@H](OC(=O)c4ccccc4)[C@H]21)C3(C)C` [Docetaxel, (2R,3S)—N-carboxy-3-phenylisoserine, N-tert-butyl ester, 13-ester with 5β-20-epoxy-1,2α,4,7β,10β,13α-hexahydroxytax-11-en-9-one 4-acetate 2-benzoate, trihydrate] has a solubility (oil or lipid, solvent LABROFAC™ (Capric triglyceride PEG 4 ester Macrogol 200)) of 35 mg/mL, a solubility (oil or lipid, solvent MAISINE™ 35-1 (Glycerol mono linoleate)) of 10 mg/mL and a solubility (oil or lipid, solvent PECEOL® (Glycerol mono Oleate 40)) of 7 mg/mL. For the same compound, the solubility (organic solvent or mixture, solvent 1-lactic acid) was 6 mg/mL, the solubility (organic solvent or mixture, solvent 2% Lutrol in PEG 400) was 15 mg/mL and the solubility (organic solvent or mixture, solvent 50% PEG 400/50% PG) was 15 mg/mL. It also gave a solubility (organic solvent or mixture, solvent Acetic acid) of 60 mg/mL, a solubility (organic solvent or mixture, solvent Benzyl alcohol) of 90 mg/mL and a solubility (organic solvent or mixture, solvent Benzyl benzoate) of 13 mg/mL. The solubility (organic solvent or mixture, solvent Ethanol) was 120 mg/mL, the solubility (organic solvent or mixture, solvent Glycerol) was 1.65 mg/mL and the solubility (organic solvent or mixture, solvent Glycofurol) was 200 mg/mL. It also gave a solubility (organic solvent or mixture, solvent N-Methyl 2-Pyrrolidone) of 17.6 mg/mL, a solubility (organic solvent or mixture, solvent PEG 400) of 10 mg/mL and a solubility (organic solvent or mixture, solvent Propylene Glycol) of 10 mg/mL. It also gave a solubility (organic solvent or mixture, solvent Span 80) of 3.5 mg/mL, a solubility (organic solvent or mixture, solvent TPGS 1000) of 50 mg/mL and a solubility (organic solvent or mixture, solvent TWEEN 20®) of 90 mg/mL. For the same compound, the solubility (organic solvent or mixture, solvent TWEEN 80®) was 60 mg/mL and the “Solubility of Docetaxel, Concentration” value (solvent Glycofurol) was “most soluble”.
